Usually DC50 stands for the concentration giving 50% degradation.

This assay addresses T1, HMG-CoA reductase (Homo sapiens, UniProt P04035).
T1 construct: endogenous in cells; host or cells: HepG2 (Korea Cell Line Bank)
T1 sequence (P04035 1-888): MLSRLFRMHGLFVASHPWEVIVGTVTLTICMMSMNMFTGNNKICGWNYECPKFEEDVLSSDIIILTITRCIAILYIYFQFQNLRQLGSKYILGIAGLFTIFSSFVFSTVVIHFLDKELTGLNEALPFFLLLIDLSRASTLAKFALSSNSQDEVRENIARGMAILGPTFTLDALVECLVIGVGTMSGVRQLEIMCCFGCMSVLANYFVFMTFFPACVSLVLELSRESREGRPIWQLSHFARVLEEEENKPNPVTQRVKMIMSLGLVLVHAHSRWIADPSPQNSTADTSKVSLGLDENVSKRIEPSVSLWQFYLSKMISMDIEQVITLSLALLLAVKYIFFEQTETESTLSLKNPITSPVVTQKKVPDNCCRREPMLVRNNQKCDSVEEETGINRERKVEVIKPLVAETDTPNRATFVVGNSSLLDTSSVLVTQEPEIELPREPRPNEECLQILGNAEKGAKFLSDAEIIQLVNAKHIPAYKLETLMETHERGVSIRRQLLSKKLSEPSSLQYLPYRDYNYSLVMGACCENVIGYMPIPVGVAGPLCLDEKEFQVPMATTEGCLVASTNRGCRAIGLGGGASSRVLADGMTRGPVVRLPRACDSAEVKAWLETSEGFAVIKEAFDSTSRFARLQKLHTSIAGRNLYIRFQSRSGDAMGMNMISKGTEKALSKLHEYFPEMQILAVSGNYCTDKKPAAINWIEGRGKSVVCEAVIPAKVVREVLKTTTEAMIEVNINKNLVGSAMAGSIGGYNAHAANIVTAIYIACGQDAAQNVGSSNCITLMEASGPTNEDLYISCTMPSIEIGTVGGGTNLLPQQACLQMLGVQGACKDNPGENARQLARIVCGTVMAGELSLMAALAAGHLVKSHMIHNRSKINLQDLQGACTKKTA
Description: HMG-CoA reductase (HMGCR) degradation in HepG2 cells by western blotting. The conditions noted are these: treated for 18 hours, ratio of HMG-CoA reductase to GAPDH, read-out: DC50. The assay is classed as cell-based. The essentials: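 HepG2 cells (passage P105–P110) treated 18 hours with compounds in 10-point three-fold dilutions from 3 μM. RIPA lysates (15 μg protein, BCA-quantified) run on SDS-PAGE and immunoblotted for HMGCR (1:500) with GAPDH (1:20000) as loading control, primary antibodies 16 hours at 4° C.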
Background: Immunoblotting shows a protein as a band on a membrane.
Take `Cc1ncsc1-c1ccc(CNC(=O)[C@@H]2C[C@@H](O)CN2C(=O)[C@@H](NC(=O)CCCCCCCCCCNC(=O)O[C@H]2C[C@@H](C)C=C3C=C[C@H](C)[C@H](CC[C@@H](O)C[C@@H](O)CC(=O)O)[C@H]32)C(C)(C)C)cc1` [Compound 154, (3R,5R)-3,5-dihydroxy-7-((1S,2S,6R,8S,8aR)-8-(((11-(((S)-1-((2S,4R)-4-hydroxy-2-((4-(4-methylthiazol-5-yl)benzyl)carbamoyl)pyrrolidin-1-yl)-3,3-dimethyl-1-oxobutan-2-yl)amino)-11-oxoundecyl)carbamoyl)oxy)-2,6-dimethyl-1,2,6,7,8,8a-hexahydronaphthalen-1-yl)heptanoic acid]: the DC50 is greater than 500 nM. Then `C[C@H]1C=C2C=C[C@H](C)[C@H](CC[C@@H]3C[C@@H](O[Si](C)(C)C(C)(C)C)CC(=O)O3)[C@H]2[C@@H](OC(=O)NCCOCCOCCNc2cccc3nnn(C4CCC(=O)NC4=O)c(=O)c23)C1` (stereo partly drawn) [Compound 155, (1S,3R,7S,8S,8aR)-8-(2-((2R,4R)-4-((tert-butyldimethylsilyl)oxy)-6-oxotetrahydro-2H-pyran-2-yl)ethyl)-3,7-dimethyl-1,2,3,7,8,8a-hexahydronaphthalen-1-yl (2-(2-(2-((3-(2,6-dioxopiperidin-3-yl)-4-oxo-3,4-dihydrobenzo[d][1,2,3]triazin-5-yl)amino)ethoxy)ethoxy)ethyl)carbamate], with less than 50 nM. Then `C[C@H]1C=C2C=C[C@H](C)[C@H](CC[C@@H]3C[C@@H](O)CC(=O)O3)[C@H]2[C@@H](OC(=O)NCCOCCOCCNc2cccc3nnn(C4CCC(=O)NC4=O)c(=O)c23)C1` (stereo partly drawn) [Compound 156, (1S,3R,7S,8S,8aR)-8-(2-((2R,4R)-4-hydroxy-6-oxotetrahydro-2H-pyran-2-yl)ethyl)-3,7-dimethyl-1,2,3,7,8,8a-hexahydronaphthalen-1-yl (2-(2-(2-((3-(2,6-dioxopiperidin-3-yl)-4-oxo-3,4-dihydrobenzo[d][1,2,3]triazin-5-yl)amino)ethoxy)ethoxy)ethyl)carbamate], with less than 50 nM; and `C[C@H]1C=C2C=C[C@H](C)[C@H](CC[C@@H]3C[C@@H](O)CC(=O)O3)[C@H]2[C@@H](OC(=O)NCCCOCCOCCOCCCNc2cccc3c2C(=O)N(C2CCC(=O)NC2=O)C3=O)C1` (stereo partly drawn) [Compound 157, (1S,3R,7S,8S,8aR)-8-(2-((2R,4R)-4-hydroxy-6-oxotetrahydro-2H-pyran-2-yl)ethyl)-3,7-dimethyl-1,2,3,7,8,8a-hexahydronaphthalen-1-yl (3-(2-(2-(3-((2-(2,6-dioxopiperidin-3-yl)-1,3-dioxoisoindolin-4-yl)amino)propoxy)ethoxy)ethoxy)propyl)carbamate], with less than 50 nM. Then `Cc1ncsc1-c1ccc(CNC(=O)[C@@H]2C[C@@H](O)CN2C(=O)[C@@H](NC(=O)CCCCCCCNC(=O)O[C@H]2C[C@@H](C)C=C3C=C[C@H](C)[C@H](CC[C@@H]4C[C@@H](O)CC(=O)O4)[C@H]32)C(C)(C)C)cc1` [Compound 158, (1S,3R,7S,8S,8aR)-8-(2-((2R,4R)-4-hydroxy-6-oxotetrahydro-2H-pyran-2-yl)ethyl)-3,7-dimethyl-1,2,3,7,8,8a-hexahydronaphthalen-1-yl (8-(((S)-1-((2S,4R)-4-hydroxy-2-((4-(4-methylthiazol-5-yl)benzyl)carbamoyl)pyrrolidin-1-yl)-3,3-dimethyl-1-oxobutan-2-yl)amino)-8-oxooctyl)carbamate], with less than 50 nM.

In the case of `Cc1ncsc1-c1ccc(CNC(=O)[C@@H]2C[C@@H](O)CN2C(=O)[C@@H](NC(=O)CCCCCCCCCCNC(=O)O[C@H]2C[C@@H](C)C=C3C=C[C@H](C)[C@H](CC[C@@H]4C[C@@H](O)CC(=O)O4)[C@H]32)C(C)(C)C)cc1` [Compound 160, (1S,3R,7S,8S,8aR)-8-(2-((2R,4R)-4-hydroxy-6-oxotetrahydro-21H-pyran-2-yl)ethyl)-3,7-dimethyl-1,2,3,7,8,8a-hexahydronaphthalen-1-yl (11-(((S)-1-((2S,4R)-4-hydroxy-2-((4-(4-methylthiazol-5-yl)benzyl)carbamoyl)pyrrolidin-1-yl)-3,3-dimethyl-1-oxobutan-2-yl)amino)-11-oxoundecyl)carbamate], the 50% degradation concentration (DC50) is less than 50 nM. Then `Cc1ncsc1-c1ccc(CNC(=O)[C@@H]2C[C@@H](O)CN2C(=O)[C@@H](NC(=O)CCCc2cn(CCCCNC(=O)O[C@H]3C[C@@H](C)C=C4C=C[C@H](C)[C@H](CC[C@@H]5C[C@@H](O)CC(=O)O5)[C@H]43)nn2)C(C)(C)C)cc1` [Compound 161, (1S,3R,7S,8S,8aR)-8-(2-((2R,4R)-4-hydroxy-6-oxotetrahydro-2H-pyran-2-yl)ethyl)-3,7-dimethyl-1,2,3,7,8,8a-hexahydronaphthalen-1-yl (4-(4-(4-(((S)-1-((2S,4R)-4-hydroxy-2-((4-(4-methylthiazol-5-yl)benzyl)carbamoyl)pyrrolidin-1-yl)-3,3-dimethyl-1-oxobutan-2-yl)amino)-4-oxobutyl)-1H-1,2,3-triazol-1-yl)butyl)carbamate], with less than 50 nM; and `Cc1ncsc1-c1ccc(CNC(=O)[C@@H]2C[C@@H](O)CN2C(=O)[C@@H](NC(=O)CCCN2CCC(CCCNC(=O)O[C@@H]3C[C@H](C)C=C4C=C[C@@H](C)[C@@H](CC[C@H]5C[C@H](O)CC(=O)O5)[C@@H]43)CC2)C(C)(C)C)cc1` [Compound 162, (1R,3S,7R,8R,8aS)-8-(2-((2S,4S)-4-hydroxy-6-oxotetrahydro-2H-pyran-2-yl)ethyl)-3,7-dimethyl-1,2,3,7,8,8a-hexahydronaphthalen-1-yl (3-(1-(4-(((S)-1-((2S,4R)-4-hydroxy-2-((4-(4-methylthiazol-5-yl)benzyl)carbamoyl)pyrrolidin-1-yl)-3,3-dimethyl-1-oxobutan-2-yl)amino)-4-oxobutyl)piperidin-4-yl)propyl)carbamate], with less than 50 nM; and `Cc1ncsc1-c1ccc(CNC(=O)[C@@H]2C[C@@H](O)CN2C(=O)[C@@H](NC(=O)C2(F)CC2)C(C)(C)C)c(OCCCCCCCCNC(=O)O[C@H]2C[C@@H](C)C=C3C=C[C@H](C)[C@H](CC[C@@H]4C[C@@H](O)CC(=O)O4)[C@H]32)c1` [Compound 165, (1S,3R,7S,8S,8aR)-8-(2-((2R,4R)-4-hydroxy-6-oxotetrahydro-2H-pyran-2-yl)ethyl)-3,7-dimethyl-1,2,3,7,8,8a-hexahydronaphthalen-1-yl (8-(2-(((2S,4R)-1-((S)-2-(1-fluorocyclopropane-1-carboxamido)-3,3-dimethylbutanoyl)-4-hydroxypyrrolidine-2-carboxamido)methyl)-5-(4-methylthiazol-5-yl)phenoxy)octyl)carbamate], with less than 50 nM. Then `Cc1ncsc1-c1ccc(CNC(=O)[C@@H]2C[C@@H](O)CN2C(=O)[C@@H](NC(=O)C2(F)CC2)C(C)(C)C)c(OCCCCCCCCCNC(=O)O[C@H]2C[C@@H](C)C=C3C=C[C@H](C)[C@H](CC[C@@H]4C[C@@H](O)CC(=O)O4)[C@H]32)c1` [Compound 166, (1S,3R,7S,8S,8aR)-8-(2-((2R,4R)-4-hydroxy-6-oxotetrahydro-2H-pyran-2-yl)ethyl)-3,7-dimethyl-1,2,3,7,8,8a-hexahydronaphthalen-1-yl (9-(2-(((2S,4R)-1-((S)-2-(1-fluorocyclopropane-1-carboxamido)-3,3-dimethylbutanoyl)-4-hydroxypyrrolidine-2-carboxamido)methyl)-5-(4-methylthiazol-5-yl)phenoxy)nonyl)carbamate], with less than 50 nM; and `Cc1ncsc1-c1ccc(CNC(=O)[C@@H]2C[C@@H](O)CN2C(=O)[C@@H](NC(=O)C2(F)CC2)C(C)(C)C)c(OCCCCCCCCCCNC(=O)O[C@H]2C[C@@H](C)C=C3C=C[C@H](C)[C@H](CC[C@@H]4C[C@@H](O)CC(=O)O4)[C@H]32)c1` [Compound 167, (1S,3R,7S,8S,8aR)-8-(2-((2R,4R)-4-hydroxy-6-oxotetrahydro-2H-pyran-2-yl)ethyl)-3,7-dimethyl-1,2,3,7,8,8a-hexahydronaphthalen-1-yl (10-(2-(((2S,4R)-1-((S)-2-(1-fluorocyclopropane-1-carboxamido)-3,3-dimethylbutanoyl)-4-hydroxypyrrolidine-2-carboxamido)methyl)-5-(4-methylthiazol-5-yl)phenoxy)decyl)carbamate], with less than 50 nM.

(Values after patent publication US12479840B2, “HMG-CoA reductase degradation inducing compound” (Uppthera, priority 2020, dated 2025).)
